Legend:
Assay type in all cases: in vivo
[1] = system: diamondback moth (Plutella xylostella); assay: Test A: control of diamondback moth on radish plant, foliar spray; conditions: sprayed at 50 ppm, held 6 days
Outline: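 Radish plants 12–14 days old, pre-infested with about 50 neonate larvae, sprayed at 50 ppm in 10% acetone/water with 300 ppm X-77 surfactant; three replicates. After 6 days at 25° C and 70% RH, feeding damage was scored visually and mortality counted.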

[2] = system: fall armyworm (Spodoptera frugiperda); assay: Test B: control of fall armyworm on corn (maize) plant, foliar spray; conditions: sprayed at 50 ppm
Outline: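 4-5-day-old corn plants pre-infested with 10-15 1-day-old larvae on insect diet, then sprayed with compound at 50 ppm in 10% acetone/90% water with 300 ppm surfactant, three replicates. Held 6 days at 25° C, 70% RH; feeding damage assessed visually and mortality rated.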

[3] = system: western flower thrips (Frankliniella occidentalis); assay: Test E: control of western flower thrips on Soleil bean plant, contact and/or systemic; conditions: held 6 days
Outline: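 5–7-day-old Soleil bean plants were sprayed at 250 or 50 ppm in 10% acetone/90% water with 300 ppm X-77 surfactant, three replicates. After drying 1 h, 22–27 adult thrips were added per unit. Mortality and plant damage were rated after 6 days at 25 °C and 45–55% RH.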

Measured: levels of control efficacy (20% or less feeding damage or 80% or more mortality)

CCNC(=O)C(C)NC(=O)c1ccc(C2=NOC(c3cc(Br)cc(C(F)(F)F)c3)(C(F)(F)F)C2)c2ccccc12 (mixture of isomers) [Compound 142]
very good to excellent: [1] | [2] | [3]; sprayed at 50 ppm

CSCCNC(=O)c1ccc(C2=NOC(c3cccc(C(F)(F)F)c3)(C(F)(F)F)C2)c2ccccc12 (racemic) [Compound 34]
very good to excellent: [1] | [2] | [3]; sprayed at 50 ppm | [3]; sprayed at 250 ppm

O=C(CNC(=O)c1ccc(C2=NOC(c3cccc(C(F)(F)F)c3)(C(F)(F)F)C2)c2ccccc12)NCC(F)(F)F (racemic) [Compound 35]
very good to excellent: [1] | [2] | [3]; sprayed at 250 ppm

O=C(CNC(=O)c1ccc(C2=NOC(c3cc(C(F)(F)F)cc(C(F)(F)F)c3)(C(F)(F)F)C2)c2ccccc12)NCC(F)(F)F (racemic) [Compound 37]
very good to excellent: [1] | [2] | [3]; sprayed at 50 ppm | [3]; sprayed at 250 ppm

CC(C)NC(=O)CNC(=O)c1ccc(C2=NOC(c3cccc(C(F)(F)F)c3)(C(F)(F)F)C2)c2ccccc12 (racemic) [Compound 38]
very good to excellent: [1] | [2] | [3]; sprayed at 50 ppm | [3]; sprayed at 250 ppm

CS(=O)(=O)CCNC(=O)c1ccc(C2=NOC(c3cccc(C(F)(F)F)c3)(C(F)(F)F)C2)c2ccccc12 (racemic) [Compound 39]
very good to excellent: [1] | [2] | [3]; sprayed at 50 ppm | [3]; sprayed at 250 ppm

CC(C)NC(=O)CNC(=O)c1ccc(C2=NOC(c3cc(C(F)(F)F)cc(C(F)(F)F)c3)(C(F)(F)F)C2)c2ccccc12 (racemic) [Compound 40]
very good to excellent: [1] | [2] | [3]; sprayed at 50 ppm | [3]; sprayed at 250 ppm

CC(C)(O)CNC(=O)c1ccc(C2=NOC(c3cccc(C(F)(F)F)c3)(C(F)(F)F)C2)c2ccccc12 (racemic) [Compound 43]
very good to excellent: [1] | [2] | [3]; sprayed at 250 ppm

CCSCCCNC(=O)c1ccc(C2=NOC(c3cccc(C(F)(F)F)c3)(C(F)(F)F)C2)c2ccccc12 (racemic) [Compound 48]
very good to excellent: [1] | [2] | [3]; sprayed at 250 ppm

CS(=O)(=O)CCNC(=O)c1ccc(C2=NOC(c3cc(C(F)(F)F)cc(C(F)(F)F)c3)(C(F)(F)F)C2)c2ccccc12 (racemic) [Compound 49]
very good to excellent: [1] | [2] | [3]; sprayed at 50 ppm | [3]; sprayed at 250 ppm

CSCCNC(=O)c1ccc(C2=NOC(c3cc(Br)cc(C(F)(F)F)c3)(C(F)(F)F)C2)c2ccccc12 (racemic) [Compound 50]
very good to excellent: [1] | [2] | [3]; sprayed at 50 ppm | [3]; sprayed at 250 ppm

CCSCCNC(=O)c1ccc(C2=NOC(c3cccc(C(F)(F)F)c3)(C(F)(F)F)C2)c2ccccc12 (racemic) [Compound 51]
very good to excellent: [1] | [2] | [3]; sprayed at 50 ppm | [3]; sprayed at 250 ppm

O=C(CNC(=O)c1ccc(C2=NOC(c3cc(Br)cc(C(F)(F)F)c3)(C(F)(F)F)C2)c2ccccc12)NCC(F)(F)F (racemic) [Compound 52]
very good to excellent: [1] | [2] | [3]; sprayed at 50 ppm | [3]; sprayed at 250 ppm

CC(C)NC(=O)CNC(=O)c1ccc(C2=NOC(c3cc(Br)cc(C(F)(F)F)c3)(C(F)(F)F)C2)c2ccccc12 (racemic) [Compound 53]
very good to excellent: [1] | [2] | [3]; sprayed at 50 ppm | [3]; sprayed at 250 ppm

CS(=O)(=O)CCNC(=O)c1ccc(C2=NOC(c3cc(Br)cc(C(F)(F)F)c3)(C(F)(F)F)C2)c2ccccc12 (racemic) [Compound 54]
very good to excellent: [1] | [2] | [3]; sprayed at 50 ppm | [3]; sprayed at 250 ppm

CSCCNC(=O)c1ccc(C2=NOC(c3cc(C(F)(F)F)cc(C(F)(F)F)c3)(C(F)(F)F)C2)c2ccccc12 (racemic) [Compound 58]
very good to excellent: [1] | [2] | [3]; sprayed at 50 ppm | [3]; sprayed at 250 ppm

CSCCNC(=O)c1ccc(C2=NOC(c3cc(F)cc(C(F)(F)F)c3)(C(F)(F)F)C2)c2ccccc12 (racemic) [Compound 132]
very good to excellent: [1] | [2] | [3]; sprayed at 50 ppm | [3]; sprayed at 250 ppm
